The experiment concerns the target T1, Murine PKD1 kinase domain (Mus musculus, UniProt Q62101).
T1 construct: hexahistidine (pFastBac HTb leader) (N); made in house; host or cells: Sf9 insect cells, baculovirus (Bac-to-Bac HT, pFastBac HTb)
T1 sequence (Q62101 with tags, fused parts or gaps R683W): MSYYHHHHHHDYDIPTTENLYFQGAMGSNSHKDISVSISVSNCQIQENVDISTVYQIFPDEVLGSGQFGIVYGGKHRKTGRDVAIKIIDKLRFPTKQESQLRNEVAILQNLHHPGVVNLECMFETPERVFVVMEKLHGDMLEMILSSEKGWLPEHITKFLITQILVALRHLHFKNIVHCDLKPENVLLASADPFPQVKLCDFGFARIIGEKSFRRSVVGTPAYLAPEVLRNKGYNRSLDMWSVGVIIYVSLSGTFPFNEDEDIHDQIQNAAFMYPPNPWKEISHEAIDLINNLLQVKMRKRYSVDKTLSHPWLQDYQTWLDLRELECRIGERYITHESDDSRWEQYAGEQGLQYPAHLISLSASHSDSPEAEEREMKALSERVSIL
The experiment can be described thus: PKD1 (Murine Kinase Domain) Enzyme Activity Assay (IMAP fluorescence polarisation). It is filed as biochemical. The settings on record: 10 μM ATP, 60 minutes, room temperature. From the text: The DNA sequence corresponding to murine PKD1 (see FIG. 1) was inserted into pFastBAc Htb (Invitrogen, USA) at BamH1 and EcoR1 sites using standard molecular biology techniques.
The PKD1 described above was expressed as a hexahistidine tagged protein construct using a commercially available baculoviral expression system that induces protein production in insect cell culture (Bac-to-Bac® HT Baculovirus Expression System, Invitrogen). Protein was typically expressed by inoculating 1 L of sf9 cells with a genetically modified baculovirus containing the gene for the kinase domain of PKD1. Sf9 cells were obtained from ICR Ltd.
Purification of PKD1 was achieved by standard chromatographic procedures. Capture from crude centrifuged lysed cell supernatant was achieved using metal affinity chromatography (GE Healthcare Life Sciences, HiTrap Chelating chromatography column), and fractions showing PKD1 (as assessed by gel electrophoresis and western blot) were further purified by a single polish purification step performed using a mono Q anion exchange chromatography system (GE Healthcare Life Sciences, HiTrap HP Q column). […] This protocol describes the method for screening compounds as inhibitors of Protein Kinase D activity in a 384 well microplate format fluorescence polarisation IMAP assay performed using the Biomek FX.
Kinase Enzyme: Murine PKD1 kinase domain at ˜100 μg/mL, was purified from baculovirus (as described above), obtained from aliquots stored at −70° C. PKD was prepared with a final concentration of 0.1 μg/mL by diluting 1:300 in Reaction Buffer (30 μL per 9 mL-5 mL per plate with an additional 4 mL dead volume) and vortexing prior to use. It was necessary to check this concentration regularly in case of enzyme degradation.
(also known as MAPKAP K2 substrate) was obtained from Molecular Devices (Product code R7127). It was used at 300 nM by diluting 20 μM stock 1:66 in Kinase/Reaction Buffer (135 μL per 9 mL; 75 μL per 5 mL Reaction Buffer for blank wells requiring <1 mL per place with an additional 4 mL dead volume).
A 1 mM ATP stock in Reaction Buffer was prepared from a 10 mM stock in 20 mM NaOH and stored as aliquots at −70° C. It was used at 40 μM by diluting 1 mM stock 1:25 in Reaction Buffer (240 μL per 6 mL-2 mL per plate with an additional 4 mL dead volume) and vortexing prior to use.
IMAP Reagents: IMAP Binding Reagent (product code R7207) and Binding Buffer (product code R7208) were obtained from Molecular Devices and stored at +4° C. The beads were gently re-suspended before diluting by 1:400 in buffer (Binding Buffer is supplied as a 5× stock and so was diluted with water prior to use) and then vortexing before addition to wells. 16 mL water with 4 mL Binding Buffer and 50 μL Binding Reagent were used per plate (17 mL per plate with an additional 3 mL dead volume).
13 μL Substrate in Reaction Buffer was added to ‘blank’ wells to give 200 nM reaction concentration. […] 2 μL 10% DMSO/water was added to ‘blank’ and ‘control’ wells. 5 μL ATP in Reaction Buffer was added to all wells to give 10 μM reaction concentration. The reaction mixture was then incubated at room temperature for 60 minutes. The incubation period was followed by the addition of 40 μL IMAP Binding Reagent in Binding Buffer to all wells. The reaction was then further incubated at room temperature for […].
Percentage inhibition was calculated based on activity of the test sample minus the average values in the blank wells relative to the average values measured in control wells minus the average values in the blank wells.
IC50 values were calculated from 10 point dose sigmoid ‘dose-response’ curves using Xlfit software (IDBS inc, USA). Data were fitted to a 4 parameter logistic model/sigmoidal dose response:
where: A=fit minimum (locked to 0); B=fit maximum (locked to 100); C=fit midpoint (pre-fit to 1); D=slope at linear portion of curve, hillslope (pre-fit to 0.1)
(In general: Fluorescence polarisation rises when a labelled molecule tumbles more slowly, as on binding a larger partner.)
Regarding `CN(C)CCNC(=O)c1cccc(-c2cnc(N)c(-c3ccc(F)c(Cl)c3)c2)c1` [Y-039, 3-[6-Amino-5-(3-chloro-4-fluoro-phenyl)-pyridin-3-yl]-N-(2-dimethylamino-ethyl)-benzamide], the IC50 was less than 1000 nM. The value for `CN(C)CCNC(=O)c1cccc(-c2cnc(N)c(-c3ccc(C(C)(C)C)cc3)c2)c1` [Y-068, 3-[6-Amino-5-(4-tert-butyl-phenyl)-pyridin-3-yl]-N-(2-dimethylamino-ethyl)-benzamide] was less than 1000 nM; that for `CN(C)CCNC(=O)c1cccc(-c2cnc(N)c(-c3ccc(Oc4ccccc4)cc3)c2)c1` [Y-067, 3-[6-Amino-5-(4-phenoxy-phenyl)-pyridin-3-yl]-N-(2-dimethylamino-ethyl)-benzamide] was less than 1000 nM; that for `CN(C)CCNC(=O)c1cccc(-c2cnc(N)c(-c3ccc(O)cc3)c2)c1` [Y-079, 3-[6-Amino-5-(4-hydroxy-phenyl)-pyridin-3-yl]-N-(2-dimethylamino-ethyl)-benzamide] was less than 1000 nM.

In the case of `CN(C)CCNC(=O)c1cccc(-c2cnc(N)c(-c3ccc(Cl)c(F)c3)c2)c1` [Y-052, 3-[6-Amino-5-(4-chloro-3-fluoro-phenyl)-pyridin-3-yl]-N-(2-dimethylamino-ethyl)-benzamide], the IC50 was less than 1000 nM.

Turning to `CCN(CC)CCNC(=O)c1cccc(-c2cncc(-c3ccc(O)c(OC)c3)n2)c1` [X-022, N-(2-Diethylamino-ethyl)-3-[6-(4-hydroxy-3-methoxy-phenyl)-pyrazin-2-yl]-benzamide], the IC50 is less than 1000 nM. `CN(C)CCNC(=O)c1cccc(-c2cnc(N)c(-c3cccc(Cl)c3)c2)c1` [Y-040, 3-[6-Amino-5-(3-chloro-phenyl)-pyridin-3-yl]-N-(2-dimethylamino-ethyl)-benzamide] returned an IC50 of less than 1000 nM. `COc1ccc(-c2cc(-c3cccc(C(N)=O)c3)cnc2N)cc1OC` [Y-034, 3-[6-Amino-5-(3,4-dimethoxy-phenyl)-pyridin-3-yl]-benzamide] showed an IC50 of 1000 to 10000 nM.

With `CN(C)CCNC(=O)c1cccc(-c2cnc(N)c(-c3cccs3)c2)c1` [Y-024, 3-(6-Amino-5-thiophen-2-yl-pyridin-3-yl)-N-(2-dimethylamino-ethyl)-benzamide], the IC50 was less than 1000 nM.

The molecule `COc1cncc(-c2cc(-c3cccc(C(=O)NCCN(C)C)c3)cnc2N)c1` [Y-089, 3-(2-Amino-5′-methoxy-[3,3′]bipyridinyl-5-yl)-N-(2-dimethylamino-ethyl)-benzamide] gave a concentration for half-maximal inhibition (IC50) of less than 1000 nM.

Molecule `CN(C)CCNC(=O)c1cccc(-c2cnc(N)c(-c3ccc(-c4ccccc4)c(F)c3)c2)c1` [Y-031, 3-[6-Amino-5-(2-fluoro-biphenyl-4-yl)-pyridin-3-yl]-N-(2-dimethylamino-ethyl)-benzamide] came in with an IC50 of less than 1000 nM.

The molecule `CN(C)CCNC(=O)c1cccc(-c2cnc(N)c(-c3ccnc(O)c3)c2)c1` [Y-071, 3-(2-Amino-2′-hydroxy-[3,4′]bipyridinyl-5-yl)-N-(2-dimethylamino-ethyl)-benzamide] showed an IC50 of less than 1000 nM. As for `COc1ccccc1-c1cncc(-c2cccc(C(=O)NCCN(C)C)c2)n1` [X-002, N-(2-Dimethylamino-ethyl)-3-[6-(2-methoxy-phenyl)-pyrazin-2-yl]-benzamide], the figure is 1000 to 10000 nM. As for `CN(C)CCNC(=O)c1cccc(-c2cnc(N)c(-c3cccc(-c4ccccc4)c3)c2)c1` [Y-013, 3-(6-Amino-5-biphenyl-3-yl-pyridin-3-yl)-N-(2-dimethylamino-ethyl)-benzamide], the figure is less than 1000 nM. As for `CN(C)CCNC(=O)c1cccc(-c2cnc(N)c(-c3ccc(F)c(C(F)(F)F)c3)c2)c1` [Y-057, 3-[6-Amino-5-(4-fluoro-3-trifluoromethyl-phenyl)-pyridin-3-yl]-N-(2-dimethylamino-ethyl)-benzamide], the figure is less than 1000 nM. In turn, `CC(=O)Nc1cccc(-c2cc(-c3cccc(C(=O)NCCN(C)C)c3)cnc2N)c1` [Y-076, 3-[5-(3-Acetylamino-phenyl)-6-amino-pyridin-3-yl]-N-(2-dimethylamino-ethyl)-benzamide] displayed an IC50 of less than 1000 nM. As for `CN(C)CCNC(=O)c1cccc(-c2cnc(N)c(-c3ccc(OC4CCCCO4)cc3)c2)c1` (stereo not shown) [Y-065, 3-{6-Amino-5-[4-(tetrahydro-pyran-2-yloxy)-phenyl]-pyridin-3-yl}-N-(2-dimethylamino-ethyl)-benzamide], the figure is less than 1000 nM; as for `CN(C)CCNC(=O)c1cccc(-c2cnc(N)c(-c3cncc4ccccc34)c2)c1` [Y-078, 3-(6-Amino-5-isoquinolin-4-yl-pyridin-3-yl)-N-(2-dimethylamino-ethyl)-benzamide], less than 1000 nM; as for `COc1cc(-c2cncc(-c3cccc(C(=O)NCCN(C)C)c3)n2)cc(OC)c1OC` [X-003, N-(2-Dimethylamino-ethyl)-3-[6-(3,4,5-trimethoxy-phenyl)-pyrazin-2-yl]-benzamide], 1000 to 10000 nM. The value for `CN(C)CCNC(=O)c1cccc(-c2cnc(N)c(-c3ccc4c(c3)CCO4)c2)c1` [Y-028, 3-[6-Amino-5-(2,3-dihydro-benzofuran-5-yl)-pyridin-3-yl]-N-(2-dimethylamino-ethyl)-benzamide] was less than 1000 nM; that for `CN(C)CCNC(=O)c1cccc(-c2cnc(N)c(-c3ccc4c(ccn4C)c3)c2)c1` [Y-027, 3-[6-Amino-5-(1-methyl-1H-indol-5-yl)-pyridin-3-yl]-N-(2-dimethylamino-ethyl)-benzamide] was less than 1000 nM; that for `COc1cccc(-c2cc(-c3cccc(C(=O)NCCN(C)C)c3)cnc2N)n1` [Y-083, 3-(2′-Amino-6-methoxy-[2,3′]bipyridinyl-5′-yl)-N-(2-dimethylamino-ethyl)-benzamide] was less than 1000 nM. As for `CN(C)CCNC(=O)c1cccc(-c2cnc(N)c(-c3ccncc3)c2)c1` [Y-084, 3-(2-Amino-[3,4′]bipyridinyl-5-yl)-N-(2-dimethylamino-ethyl)-benzamide], the figure is less than 1000 nM; as for `CN(C)CCNC(=O)c1cccc(-c2cncc(-c3ccc(CO)cc3)n2)c1` [X-005, N-(2-Dimethylamino-ethyl)-3-[6-(4-hydroxymethyl-phenyl)-pyrazin-2-yl]-benzamide], less than 1000 nM. `COc1ccccc1-c1nc(-c2cccc(C(=O)NCCN(C)C)c2)cnc1N` [X-015, 3-[5-Amino-6-(2-methoxy-phenyl)-pyrazin-2-yl]-N-(2-dimethylamino-ethyl)-benzamide] had an IC50 of 1000 to 10000 nM. With `CCN(CC)CCNC(=O)c1cccc(-c2cnc(N)c(-c3cccc(OC)c3)n2)c1` [X-027, 3-[5-Amino-6-(3-methoxy-phenyl)-pyrazin-2-yl]-N-(2-diethylamino-ethyl)-benzamide], the IC50 was less than 1000 nM. As for `CC(=O)Nc1cccc(-c2cncc(-c3cccc(C(=O)NCCCN(C)C)c3)n2)c1` [X-006, 3-[6-(3-Acetylamino-phenyl)-pyrazin-2-yl]-N-(3-dimethylamino-propyl)-benzamide], the figure is less than 1000 nM; as for `NC(=O)c1cccc(-c2cnc(N)c(-c3ccc4[nH]ccc4c3)c2)c1` [Y-025, 3-[6-Amino-5-(1H-indol-5-yl)-pyridin-3-yl]-benzamide], less than 1000 nM.

In general, IC50 refers to the point on the concentration scale where inhibition reaches its midpoint.

These data come from patent US20110098325A1, “PYRIDINE BENZAMIDES AND PYRAZINE BENZAMIDES USED AS PKD INHIBITORS” (CANCER RESEARCH TECHNOLOGY LIMITED, priority 2006, published 2011).
